Reference: patent publication US20190328753A1, “COMPOSITIONS AND METHODS FOR TREATING OCULAR DISEASES” (priority 2015, published 2019)
Where “and” joins values, the source holds several entries; their conditions need not be identical. Identical values can stand only once.

Tested on: patients with moderate to severe MGD
Assay: Clinical trial (Example 8): topical Spironolactone (3 mg/ml) in MGD, retrospective pre-post
Settings: for Obstruction, Mean / Turbidity, Mean / Vascularity, Mean / Zone A, Mean / Anterior Blepharitis, Mean / Anterior Blepharitis, mean change / Obstruction, mean change / Turbidity, mean change / Vascularity, mean change / Zone A, mean change: scale 0-4; for Global Evaluation, Mean / Global Evaluation, mean change / Subjective Global Assessment, Mean: scale 0-10
[1] = follow-up 1, patients with >1 follow-ups, low Schirmer's, n=10
[2] = follow-up 1, patients with >1 follow-ups, normal Schirmer's, n=28
[3] = follow-up 1, patients with >1 follow-ups, normal Schirmer's, n=28, scale 0-3
[4] = follow-up 1 vs final follow-up, low Schirmer's, n=10
[5] = follow-up 1 vs final follow-up, low Schirmer's, n=10, scale 0-3
[6] = follow-up 1 vs final follow-up, normal Schirmer's, n=28
[7] = follow-up 1 vs final follow-up, normal Schirmer's, n=28, positive = score decrease
[8] = follow-up 1 vs final follow-up, normal Schirmer's, n=28, scale 0-3
[9] = post-treatment follow-up 1, low Schirmer's, n=27
[10] = post-treatment follow-up 1, low Schirmer's, n=27, scale 0-3
[11] = post-treatment follow-up 1, normal Schirmer's, n=75
[12] = post-treatment follow-up 1, normal Schirmer's, n=75, scale 0-3

For `CC(=O)SC1CC2=CC(=O)CCC2(C)C2CCC3(C)C(CCC34CCC(=O)O4)C12` (stereo not drawn) [spironolactone, 7α-acetylthio-3-oxo-17α-pregn-4-ene-21,17-carbolactone], the “Obstruction, Mean” value [1] was 1.35±1.06 and 1.35, the “Turbidity, Mean” value [1] was 1.95±0.76 and 1.95 and the “Vascularity, Mean” value [1] was 1.1±0.88 and 1.1. The “Zone A, Mean” value [1] was 2.55±0.98 and 2.55, the “Global Evaluation, Mean” value [1] was 4.15±2.07 and 4.15 and the “Schirmer's OD, Mean” value [2] was 17.07±10.10 and 17.07. For the same molecule, the “Schirmer's OS, Mean” value [2] was 17.50±10.42 and 17.5, the “Vision OD, Mean” value [2] was 0.07±0.20 log Mar units and 0.07437 log Mar units and the “Vision OS, Mean” value [2] was 0.09±0.15 log Mar units and 0.08826 log Mar units. The “Keratitis OD Corneal, Mean” value [3] was 0.0±0.0 and 0, the “Keratitis OD Nasal, Mean” value [3] was 0.64±0.72 and 0.6429 and the “Keratitis OD Temporal, Mean” value [3] was 0.54±0.68 and 0.5357. For the same molecule, the “Keratitis OS Corneal, Mean” value [3] was 0.14±0.52 and 0.1429, the “Keratitis OS Nasal, Mean” value [3] was 0.82±0.80 and 0.8214 and the “Keratitis OS Temporal, Mean” value [3] was 0.71±0.80 and 0.7143. For the same molecule, the “Anterior Blepharitis, Mean” value [2] was 0.29±0.50 and 0.2857, the “Obstruction, Mean” value [2] was 1.12±0.83 and 1.116 and the “Turbidity, Mean” value [2] was 1.96±0.62 and 1.964. For the same molecule, the “Vascularity, Mean” value [2] was 1.42±0.84 and 1.42, the “Zone A, Mean” value [2] was 2.59±0.82 and 2.589 and the “Global Evaluation, Mean” value [2] was 4.32±1.53 and 4.321. The “Schirmer's OD, mean change” value [4] was 2.9±4.93 and 2.9, the “Schirmer's OS, mean change” value [4] was 1.56±6.25 and 1.556 and the “Vision OD, mean change” value [4] was 0.06±0.10 log units and 0.06011 log units. The “Vision OS, mean change” value [4] was 0.02±0.07 log units and 0.0185 log units, the “mean improvement in obstruction score” value (follow-up 1 vs final follow-up, low Schirmer's, n=10, positive = score decrease) was 0.6±1.13 and the “Keratitis OD Corneal, mean change” value [5] was 0. The “Keratitis OD Nasal, mean change” value [5] was 0.15, the “Keratitis OD Temporal, mean change” value [5] was 0.05 and the “Keratitis OS Corneal, mean change” value [5] was 0.1111. The “Keratitis OS Nasal, mean change” value [5] was −0.2222, the “Keratitis OS Temporal, mean change” value [5] was −0.1667 and the “Anterior Blepharitis, mean change” value [4] was −0.1±0.57 and −0.1. The “Obstruction, mean change” value [4] was −0.6, the “Turbidity, mean change” value [4] was 0.15±0.82 and 0.15 and the “Vascularity, mean change” value [4] was 0.3±0.63 and 0.3. For the same molecule, the “Zone A, mean change” value [4] was 0.25±0.75 and 0.25, the “Global Evaluation, mean change” value [4] was 0.25±2.55 and 0.25 and the “Schirmer's OD, mean change” value [6] was 1.77±9.01 and 1.778. For the same molecule, the “improvement in self-reported global assessment scores” value [7] was 0.77±1.36, the “mean improvement in obstruction score” value [7] was 0.06±0.87 and the “mean improvement in turbidity score” value [7] was 0.16±1.00. The “mean improvement in vascularity score” value [7] was 0.29±0.79, the “Keratitis OD Corneal, mean change” value [8] was 0.0±0.0 and 0 and the “Keratitis OD Temporal, mean change” value [8] was 0.017±0.57 and 0.01786. The “Keratitis OS Corneal, mean change” value [8] was 0.018±0.21 and 0.01786, the “Anterior Blepharitis, mean change” value [6] was 0.04±0.64 and 0.03571 and the “Obstruction, mean change” value [6] was −0.0625. For the same molecule, the “Turbidity, mean change” value [6] was −0.1607, the “Vascularity, mean change” value [6] was −0.2946 and the “Zone A, mean change” value [6] was 0.13±0.69 and 0.125. For the same molecule, the “Global Evaluation, mean change” value [6] was −0.7679, the “time to improved symptoms of ocular irritation” value (moderate to severe symptomatic MGD, 'as early as') was 2 weeks and the “side effects after topical administration” value (patients of the clinical trial) was “A small percentage of the patients reported a mild temporary burning sensation in the eye”. The “Subjective Global Assessment, Mean” value (post-treatment follow-up 1, low Schirmer's (5 or less), n=27) was 3.78±1.68 and 3.778, the “Schirmer's OD, Mean” value [9] was 7.52±7.42 mm and 7.519 mm and the “Schirmer's OS, Mean” value [9] was 6.92±5.34 mm and 6.923 mm. The “Vision OD, Mean” value [9] was 0.05±0.12 log Mar units and 0.04681 log Mar units, the “Vision OS, Mean” value [9] was 0.13±0.30 log Mar units and 0.1307 log Mar units and the “Keratitis OD Corneal, Mean” value [10] was 0.07±0.38 and 0.07407. For the same molecule, the “Keratitis OD Nasal, Mean” value [10] was 0.93±0.84 and 0.9259, the “Keratitis OD Temporal, Mean” value [10] was 0.74±0.91 and 0.7407 and the “Keratitis OS Corneal, Mean” value [10] was 0.15±0.37 and 0.1538. For the same molecule, the “Keratitis OS Nasal, Mean” value [10] was 1.19±0.87 and 1.192, the “Keratitis OS Temporal, Mean” value [10] was 0.96±0.82 and 0.9615 and the “Anterior Blepharitis, Mean” value [9] was 0.41±0.71 and 0.4074. For the same molecule, the “Obstruction, Mean” value [9] was 1.13±1.05 and 1.13, the “Turbidity, Mean” value [9] was 1.89±0.91 and 1.889 and the “Vascularity, Mean” value [9] was 0.93±0.829 and 0.9259. For the same molecule, the “Zone A, Mean” value [9] was 2.46±1.13 and 2.463, the “Subjective Global Assessment, Mean” value (post-treatment follow-up 1, normal Schirmer's (>5), n=75) was 4.03±1.57 and 4.033 and the “Schirmer's OD, Mean” value [11] was 16.47±9.75 mm and 16.47 mm. For the same molecule, the “Schirmer's OS, Mean” value [11] was 16.95±9.61 mm and 16.95 mm, the “Vision OD, Mean” value [11] was 0.08±0.18 log Mar units and 0.07686 log Mar units and the “Vision OS, Mean” value [11] was 0.11±0.22 log Mar units and 0.1115 log Mar units. For the same molecule, the “Keratitis OD Corneal, Mean” value [12] was 0.007±0.06 and 0.006757, the “Keratitis OD Nasal, Mean” value [12] was 0.64±0.68 and 0.6419 and the “Keratitis OD Temporal, Mean” value [12] was 0.45±0.64 and 0.4527. The “Keratitis OS Corneal, Mean” value [12] was 0.07±0.34 and 0.06757, the “Keratitis OS Nasal, Mean” value [12] was 0.72±0.73 and 0.723 and the “Keratitis OS Temporal, Mean” value [12] was 0.57±0.69 and 0.5743. For the same molecule, the “Anterior Blepharitis, Mean” value [11] was 0.39±0.67 and 0.3867, the “Obstruction, Mean” value [11] was 0.98±0.69 and 0.9833 and the “Turbidity, Mean” value [11] was 1.75±0.75 and 1.753. For the same molecule, the “Vascularity, Mean” value [11] was 1.11±0.829 and 1.11 and the “Zone A, Mean” value [11] was 2.51±0.88 and 2.513.
